Source: US20250353873A1, “COMPOUNDS AND METHODS FOR MODULATING APOE EXPRESSION” (Ionis Pharmaceuticals, Inc., priority 2024, published 2025)
Strand notation (5' to 3'): a small letter for the sugar, then the base; units joined by * are phosphorothioate-linked, units joined directly phosphodiester-linked; [ ] holds rarer units or linkages, { } end groups; capitals alone tell only the bases. [ms] = mesyl phosphoramidate linkage; e = 2'-O-(2-methoxyethyl) (MOE); [5mC] = 5-methylcytosine; d = 2'-deoxy (DNA)

Columns and labels:
[1] = tested on: human APOE RNA; experiment: Activity in APOE C57BL/6NTac-Apoeem7250 knock-in mice, single ICV bolus, 16 weeks (Example 12); type: in vivo; settings: single ICV bolus 300 μg, 16 weeks post treatment, normalized to mouse Ppia
Summary of the method: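 A single 300 μg intracerebroventricular dose was given, with PBS-treated mice as reference; cortical and spinal cord tissue was taken 16 weeks later. RT-qPCR quantified human APOE RNA, Ppia-normalized, expressed relative to PBS animals (% control).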

[2] = tested on: human APOE RNA; experiment: Activity in APOE C57BL/6NTac-Apoeem7250 knock-in mice, single ICV bolus, 8 weeks (Example 11); type: in vivo; settings: single ICV bolus 300 μg, 8 weeks post treatment, normalized to mouse Ppia
Method: Modified oligonucleotides described above were tested in the APOE C57BL/6NTac-Apoeem7250 knock-in mouse model described above.
Each mouse received a single ICV bolus of 300 μg of modified oligonucleotide. A group of 3-4 mice received a single ICV bolus with PBS as a negative control.
Eight weeks post treatment, mice were sacrificed and RNA was extracted from cortical brain tissue and spinal cord for quantitative real-time RT-PCR analysis of RNA expression of APOE using human primer probe set RTS3073 (described herein above). APOE RNA levels were normalized to mouse Ppia. Mouse Ppia was amplified using primer probe set m_cyclo24 (described herein above). Results are presented as percent human APOE RNA relative to the amount of human APOE RNA in PBS treated animals, (% control). Each experiment is identified in separate tables below.

1693043: 5-10-5 MOE gapmer CTTGGTGAATCTTTATTAAA, linkages sssoszzzzssssssosss (antisense e[5mC]*eT*eT*eGeG*dT[ms]dG[ms]dA[ms]dA[ms]dT*d[5mC]*dT*dT*dT*dA*eTeT*eA*eA*eA) [compound 1693043]
APOE RNA (% control) Cortex [1]: 80 % control | APOE RNA (% control) Spinal Cord [1]: 73 % control | APOE RNA (% control) Cortex [2]: 89 % control | APOE RNA (% control) Spinal Cord [2]: 83 % control

1681020: 5-10-5 MOE gapmer GGTGAATCTTTATTAAACTA, linkages zsssszsssszzszssssz (antisense eG[ms]eG*eT*eG*eA*dA[ms]dT*d[5mC]*dT*dT*dT[ms]dA[ms]dT*dT[ms]dA*eA*eA*e[5mC]*eT[ms]eA) [compound 1681020]
APOE RNA (% control) Cortex [1]: 92 % control | APOE RNA (% control) Spinal Cord [1]: 59 % control | APOE RNA (% control) Cortex [2]: 63 % control | APOE RNA (% control) Spinal Cord [2]: 35 % control

1693085: 6-10-4 MOE gapmer TTGGTGAATCTTTATTAAAC, linkages ssssszzzsssszzsssss (eT*eT*eG*eG*eT*eG[ms]dA[ms]dA[ms]dT*d[5mC]*dT*dT*dT[ms]dA[ms]dT*dT*eA*eA*eA*e[5mC]) [compound 1693085]
APOE RNA (% control) Cortex [1]: 93 % control | APOE RNA (% control) Spinal Cord [1]: 71 % control | APOE RNA (% control) Cortex [2]: 86 % control | APOE RNA (% control) Spinal Cord [2]: 79 % control

1681021: 5-10-5 MOE gapmer GGTGAATCTTTATTAAACTA, linkages zsssszsssszzssssssz (antisense eG[ms]eG*eT*eG*eA*dA[ms]dT*d[5mC]*dT*dT*dT[ms]dA[ms]dT*dT*dA*eA*eA*e[5mC]*eT[ms]eA) [compound 1681021]
APOE RNA (% control) Cortex [1]: 91 % control | APOE RNA (% control) Spinal Cord [1]: 40 % control | APOE RNA (% control) Cortex [2]: 55 % control | APOE RNA (% control) Spinal Cord [2]: 68 % control

1693041: 5-10-5 MOE gapmer CTTGGTGAATCTTTATTAAA, linkages ssossszzzssssssosss (antisense e[5mC]*eT*eTeG*eG*dT*dG[ms]dA[ms]dA[ms]dT*d[5mC]*dT*dT*dT*dA*eTeT*eA*eA*eA) [compound 1693041]
APOE RNA (% control) Cortex [1]: 84 % control | APOE RNA (% control) Spinal Cord [1]: 85 % control | APOE RNA (% control) Cortex [2]: 75 % control | APOE RNA (% control) Spinal Cord [2]: 74 % control

1693084: 6-10-4 MOE gapmer TTGGTGAATCTTTATTAAAC, linkages ssssszzzszsszzsssss (eT*eT*eG*eG*eT*eG[ms]dA[ms]dA[ms]dT*d[5mC][ms]dT*dT*dT[ms]dA[ms]dT*dT*eA*eA*eA*e[5mC]) [compound 1693084]
APOE RNA (% control) Cortex [1]: 89 % control | APOE RNA (% control) Spinal Cord [1]: 86 % control | APOE RNA (% control) Cortex [2]: 72 % control | APOE RNA (% control) Spinal Cord [2]: 115 % control

1693051: 5-10-5 MOE gapmer TTGGTGAATCTTTATTAAAC, linkages ssosszzzsssssssosss (antisense eT*eT*eGeG*eT*dG[ms]dA[ms]dA[ms]dT*d[5mC]*dT*dT*dT*dA*dT*eTeA*eA*eA*e[5mC]) [compound 1693051]
APOE RNA (% control) Cortex [1]: 97 % control | APOE RNA (% control) Spinal Cord [1]: 79 % control | APOE RNA (% control) Cortex [2]: 114 % control | APOE RNA (% control) Spinal Cord [2]: 76 % control

1681005: 5-10-5 MOE gapmer GGTGAATCTTTATTAAACTA, linkages ssssszsssszzszsssss (antisense eG*eG*eT*eG*eA*dA[ms]dT*d[5mC]*dT*dT*dT[ms]dA[ms]dT*dT[ms]dA*eA*eA*e[5mC]*eT*eA) [compound 1681005]
APOE RNA (% control) Cortex [1]: 116 % control | APOE RNA (% control) Spinal Cord [1]: 68 % control | APOE RNA (% control) Cortex [2]: 101 % control | APOE RNA (% control) Spinal Cord [2]: 70 % control

1693047: 5-10-5 MOE gapmer CTTGGTGAATCTTTATTAAA, linkages sssoszzzzssssszosss (antisense e[5mC]*eT*eT*eGeG*dT[ms]dG[ms]dA[ms]dA[ms]dT*d[5mC]*dT*dT*dT*dA[ms]eTeT*eA*eA*eA) [compound 1693047]
APOE RNA (% control) Cortex [1]: 97 % control | APOE RNA (% control) Spinal Cord [1]: 71 % control | APOE RNA (% control) Cortex [2]: 78 % control | APOE RNA (% control) Spinal Cord [2]: 77 % control

1693045: 5-10-5 MOE gapmer CTTGGTGAATCTTTATTAAA, linkages ssssozzzzssssssssss (antisense e[5mC]*eT*eT*eG*eGdT[ms]dG[ms]dA[ms]dA[ms]dT*d[5mC]*dT*dT*dT*dA*eT*eT*eA*eA*eA) [compound 1693045]
APOE RNA (% control) Cortex [1]: 93 % control | APOE RNA (% control) Spinal Cord [1]: 60 % control | APOE RNA (% control) Cortex [2]: 88 % control | APOE RNA (% control) Spinal Cord [2]: 86 % control

1693044: 5-10-5 MOE gapmer CTTGGTGAATCTTTATTAAA, linkages sssoszzzzssssssssss (antisense e[5mC]*eT*eT*eGeG*dT[ms]dG[ms]dA[ms]dA[ms]dT*d[5mC]*dT*dT*dT*dA*eT*eT*eA*eA*eA) [compound 1693044]
APOE RNA (% control) Cortex [1]: 98 % control | APOE RNA (% control) Spinal Cord [1]: 63 % control | APOE RNA (% control) Cortex [2]: 86 % control | APOE RNA (% control) Spinal Cord [2]: 95 % control

1693050: 5-10-5 MOE gapmer TTGGTGAATCTTTATTAAAC, linkages soosszzzsssssssosss (antisense eT*eTeGeG*eT*dG[ms]dA[ms]dA[ms]dT*d[5mC]*dT*dT*dT*dA*dT*eTeA*eA*eA*e[5mC]) [compound 1693050]
APOE RNA (% control) Cortex [1]: 100 % control | APOE RNA (% control) Spinal Cord [1]: 63 % control | APOE RNA (% control) Cortex [2]: 77 % control | APOE RNA (% control) Spinal Cord [2]: 63 % control

1681006: 5-10-5 MOE gapmer GGTGAATCTTTATTAAACTA, linkages ssssszsssszzszzssss (antisense eG*eG*eT*eG*eA*dA[ms]dT*d[5mC]*dT*dT*dT[ms]dA[ms]dT*dT[ms]dA[ms]eA*eA*e[5mC]*eT*eA) [compound 1681006]
APOE RNA (% control) Cortex [1]: 120 % control | APOE RNA (% control) Spinal Cord [1]: 80 % control | APOE RNA (% control) Cortex [2]: 85 % control | APOE RNA (% control) Spinal Cord [2]: 71 % control

1681007: 5-10-5 MOE gapmer GGTGAATCTTTATTAAACTA, linkages zsssszsssszzszssszz (antisense eG[ms]eG*eT*eG*eA*dA[ms]dT*d[5mC]*dT*dT*dT[ms]dA[ms]dT*dT[ms]dA*eA*eA*e[5mC][ms]eT[ms]eA) [compound 1681007]
APOE RNA (% control) Cortex [1]: 96 % control | APOE RNA (% control) Spinal Cord [1]: 67 % control | APOE RNA (% control) Cortex [2]: 71 % control | APOE RNA (% control) Spinal Cord [2]: 47 % control

1693039: 5-10-5 MOE gapmer CTTGGTGAATCTTTATTAAA, linkages sssosszzzssssssooss (antisense e[5mC]*eT*eT*eGeG*dT*dG[ms]dA[ms]dA[ms]dT*d[5mC]*dT*dT*dT*dA*eTeTeA*eA*eA) [compound 1693039]
APOE RNA (% control) Cortex [1]: 127 % control | APOE RNA (% control) Spinal Cord [1]: 99 % control | APOE RNA (% control) Cortex [2]: 90 % control | APOE RNA (% control) Spinal Cord [2]: 71 % control

1693042: 5-10-5 MOE gapmer CTTGGTGAATCTTTATTAAA, linkages sssosszzzssssssssss (antisense e[5mC]*eT*eT*eGeG*dT*dG[ms]dA[ms]dA[ms]dT*d[5mC]*dT*dT*dT*dA*eT*eT*eA*eA*eA) [compound 1693042]
APOE RNA (% control) Cortex [1]: 90 % control | APOE RNA (% control) Spinal Cord [1]: 65 % control | APOE RNA (% control) Cortex [2]: 77 % control | APOE RNA (% control) Spinal Cord [2]: 81 % control

1652903: 6-10-4 MOE gapmer ACTTGGTGAATCTTTATTAA, linkages sooooossssssssssoss (antisense eA*e[5mC]eTeTeGeGdT*dG*dA*dA*dT*d[5mC]*dT*dT*dT*dA*eTeT*eA*eA) [compound 1652903]
APOE RNA (% control) Cortex [1]: 87 % control | APOE RNA (% control) Spinal Cord [1]: 39 % control | APOE RNA (% control) Cortex [2]: 49 % control | APOE RNA (% control) Spinal Cord [2]: 19 % control

1693048: 5-10-5 MOE gapmer CTTGGTGAATCTTTATTAAA, linkages ssssszzzzssssszosss (antisense e[5mC]*eT*eT*eG*eG*dT[ms]dG[ms]dA[ms]dA[ms]dT*d[5mC]*dT*dT*dT*dA[ms]eTeT*eA*eA*eA) [compound 1693048]
APOE RNA (% control) Cortex [1]: 105 % control | APOE RNA (% control) Spinal Cord [1]: 71 % control | APOE RNA (% control) Cortex [2]: 97 % control | APOE RNA (% control) Spinal Cord [2]: 87 % control

1681003: 5-10-5 MOE gapmer GGTGAATCTTTATTAAACTA, linkages soooszsssszzszsooss (antisense eG*eGeTeGeA*dA[ms]dT*d[5mC]*dT*dT*dT[ms]dA[ms]dT*dT[ms]dA*eAeAe[5mC]*eT*eA) [compound 1681003]
APOE RNA (% control) Cortex [1]: 106 % control | APOE RNA (% control) Spinal Cord [1]: 61 % control | APOE RNA (% control) Cortex [2]: 90 % control | APOE RNA (% control) Spinal Cord [2]: 48 % control

1681004: 5-10-5 MOE gapmer GGTGAATCTTTATTAAACTA, linkages ssooszsssszzszsooss (antisense eG*eG*eTeGeA*dA[ms]dT*d[5mC]*dT*dT*dT[ms]dA[ms]dT*dT[ms]dA*eAeAe[5mC]*eT*eA) [compound 1681004]
APOE RNA (% control) Cortex [1]: 127 % control | APOE RNA (% control) Spinal Cord [1]: 61 % control | APOE RNA (% control) Cortex [2]: 120 % control | APOE RNA (% control) Spinal Cord [2]: 89 % control
